Test results as given in article PMC11483378, “Triazole-Based Thiamine Analogues as Inhibitors of Thiamine Pyrophosphate-Dependent Enzymes: 1,3-Dicarboxylate for Metal Binding” (ACS Omega, 2024).
Like-named read-outs stand apart in the source and are kept apart here.

Experiments:
[1] = target: A. viridans PO (Aerococcus viridans, UniProt A9X9K8); assay: A. viridans PO inhibitory activity assay (quinoneimine dye); assay type: biochemical
Description: A. viridans PO and horseradish peroxidase were purchased from Sigma. A. viridans PO activity was determined by monitoring appearance of quinoneimine dye at 550 nm using a microplate reader (CLARIOstar) and conducted as described[5] with some modifications. […] The reaction buffer (50 mM KH2PO4 and 10 mM MgCl2, pH 5.9) contained TPP at specified concentrations, 10 μM flavin adenine dinucleotide, 0.15% 4-aminoantipyrine, 0.3% N-ethyl-N-(2-hydroxy-3-sulfopropyl)-m-toluidine (EHSPT), 50 μg/mL horseradish peroxidase, and 0.35 U/mL A. viridans PO. The reaction mixture was preincubated at 37 °C with inhibitor for 30 min, and then the reaction was initiated by adding pyruvate to a final concentration of 50 mM. To determine the IC50, TPP concentration was set at 60 μM with varying inhibitor concentrations. One unit of PO activity is defined as the production of 1 μmol of hydrogen peroxide per minute. The IC50 values were calculated from nonlinear regression curve fitting using GraphPad Prism.
Enzyme inhibitory activity assays – methods and results (Figures S1-4) […]
The compound […]
A. viridans PO inhibitory activity assay. A. viridans PO and horseradish peroxidase were purchased from Sigma. A. viridans PO activity was determined by monitoring appearance of quinoneimine dye at 550 nm using a microplate reader (CLARIOstar) and conducted as described3 with some modifications. […]
buffer (50 mM KH2PO4 and 10 mM MgCl2, pH 5.9) contained TPP at specified concentrations, 10 µM flavin adenine dinucleotide (FAD), 0.15% 4-aminoantipyrine, 0.3% N-ethyl-N-(2-hydroxy-3-sulfopropyl)-m-toluidine (EHSPT), 50 µg/mL horseradish peroxidase and 0.35 U/mL A. viridans PO. The reaction mixture was preincubated at 37 °C with inhibitor for 30 min, then reaction was initiated by adding pyruvate to a final concentration of 50 mM. To determine the IC50, TPP concentration was set was set at 60 µM with varying inhibitor concentrations. One unit of PO activity is defined as the production of 1 μmol of hydrogen peroxide per minute. The IC 50 values were calculated from non-linear regression curve fitting using GraphPad Prism. […]

[2] = system: TPP-dependent enzymes; assay: Inhibition / relative affinity across the TPP-dependent enzymes (PDH E1, PDC, PO, OGDH E1); assay type: biochemical; details: comparison of relative affinities
Description: The different biochemical reactions catalyzed, preferred substrates (Table S1), and primary sequences reflect the structurally and functionally diverse members of the family. […] However, as the inhibitors are TPP-competitive, what really matters is the affinity of each inhibitor relative to the affinity of TPP for that particular enzyme.

[3] = system: porcine liver esterase; assay: Esterase treatment with UPLC-HRMS analysis; assay type: in vitro ADME
Description: Esters 13b and 15b were subjected to esterase treatment (porcine liver esterase) at 37 °C and pH 7.4 for 2 h, and then the reaction mixtures were analyzed using UPLC-HRMS (Figure 4).[24] The molecular mass of the new products formed was determined by MS and confirmed that they were the expected carboxylic acids. […] The second hydrolysis is presumably slower because the substrate 17 is anionic, whereas for the first hydrolysis, the substrate 13b is neutral.[19],[25],[26] When 13b enters a cell through passive diffusion, the intracellular esterases will begin to hydrolyze the ester groups to give first 17 and then 14b. Since both 17 and 14b are negatively charged under physiological conditions, they will be unable to diffuse back out of the cell and so should accumulate there.[27] Diester 13b is more hydrophobic than triazole hydroxamate 4 (c Log D: 0.8 vs −0.5) and so should diffuse into cells more readily. […] Thus, we anticipate that 13b will be as useful as 4 in probing the role of vitamin B1 in cells.
Figure 4 UPLC-HRMS analysis of the esterase treatment. […] Compound (retention time/min): diester 13b (1.30), dicarboxylate 14b (0.51), monoester 15b (0.99), monocarboxylate 16b (0.51), and intermediate 17 (0.67).

[4] = [Compound] = 250 μM, [TPP] = 50 μM
[5] = [Compound] = [TPP] = 250 μM; read-out: % Inhibition (1:1)
[6] = [TPP] = 60 µM; read-out: IC50 (μM ± SEM)
[7] = calculated from KM(TPP) 5 µM using [TPP]/IC50 = KM(TPP)/KI; read-out: KI
[8] = calculated from KM(TPP) 5 µM using [TPP]/IC50 = KM(TPP)/KI
[9] = read-out: IC50 (μM ± SEM); [TPP] = 60 µM

A. viridans PO, sequence (A9X9K8 entry or part of it): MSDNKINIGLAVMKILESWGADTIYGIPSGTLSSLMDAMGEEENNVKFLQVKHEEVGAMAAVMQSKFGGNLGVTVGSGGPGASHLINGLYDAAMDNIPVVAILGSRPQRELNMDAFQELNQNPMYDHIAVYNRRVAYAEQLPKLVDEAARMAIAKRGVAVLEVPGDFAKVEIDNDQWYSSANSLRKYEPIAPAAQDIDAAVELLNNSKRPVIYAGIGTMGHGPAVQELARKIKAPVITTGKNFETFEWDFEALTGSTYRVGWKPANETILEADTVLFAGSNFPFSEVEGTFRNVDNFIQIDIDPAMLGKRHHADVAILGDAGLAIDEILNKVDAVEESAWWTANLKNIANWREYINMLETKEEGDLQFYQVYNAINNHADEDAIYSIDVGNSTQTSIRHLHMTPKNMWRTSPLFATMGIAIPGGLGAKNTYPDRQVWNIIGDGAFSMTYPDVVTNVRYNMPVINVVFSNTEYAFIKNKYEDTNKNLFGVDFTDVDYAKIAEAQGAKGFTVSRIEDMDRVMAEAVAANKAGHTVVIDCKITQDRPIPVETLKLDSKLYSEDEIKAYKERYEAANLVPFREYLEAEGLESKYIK

| SMILES | % Inhibition (5:1) [1, 4] [%] | inhibition at 250 µM [1, 5] [%] | vs TPP: affinity of the compound relative to that of TPP (= [TPP]/IC50) ([1]; [TPP] = 60 µM) | IC50 [1, 6] [µM] | Ki [1, 7] [µM] | affinities, fold lower than those of 14b [2] | outcome of esterase treatment ([3]; 37 °C, pH 7.4, 2 h) | outcome of esterase treatment ([3]; after 24 h) | Ki [1, 8] [µM] | IC50 [1, 9] [µM] |
| --- | --- | --- | --- | --- | --- | --- | --- | --- | --- | --- |
| COC(=O)C(CCc1cn(Cc2cnc(C)nc2N)nn1)C(=O)OC [13a] | 62 ± 4 | 26 ± 4 | 0.32 | 189 ± 44 | 16 | – | – | – | – | – |
| COC(=O)C(CCCc1cn(Cc2cnc(C)nc2N)nn1)C(=O)OC [13b] | 65 ± 5 | 29 ± 4 | 0.39 | 152 ± 24 | 13 | approximately 3 fold | the major product was monoester monocarboxylate 17 | the only product seen was dicarboxylate 14b | – | – |
| Cc1ncc(Cn2cc(CCC(C(=O)[O-])C(=O)[O-])nn2)c(N)n1.[K+].[K+] [14a] | 76 ± 3 | 41 ± 3 | 0.69 | – | – | – | – | – | 7.3 | 87 ± 11 |
| Cc1ncc(Cn2cc(CCCC(C(=O)[O-])C(=O)[O-])nn2)c(N)n1.[K+].[K+] [14b] | 85 ± 4 | 55 ± 4 | 1.22 | – | – | – | – | – | 4.1 | 49 ± 7 |
| COC(=O)CCCc1cn(Cc2cnc(C)nc2N)nn1 [15a] | 52 ± 3 | 21 ± 4 | 0.22 | 274 ± 52 | 23 | – | – | – | – | – |
| COC(=O)CCCCc1cn(Cc2cnc(C)nc2N)nn1 [15b] | 59 ± 3 | 24 ± 4 | 0.28 | 214 ± 31 | 18 | – | completely hydrolyzed into monocarboxylate 16b | – | – | – |
| Cc1ncc(Cn2cc(CCCC(=O)[O-])nn2)c(N)n1.[K+] [16a] | 59 ± 3 | 22 ± 5 | 0.30 | – | – | – | – | – | 17 | 202 ± 34 |
| Cc1ncc(Cn2cc(CCCCC(=O)[O-])nn2)c(N)n1.[K+] [16b] | 63 ± 3 | 28 ± 4 | 0.35 | – | – | approximately 3 fold | – | – | 14 | 171 ± 29 |
